Reference: US20170363612A1, “COMPOSITIONS AND METHODS RELATING TO PROLIFERATIVE DISORDERS” (Wayne State University, priority 2014, published 2017)
Values joined by “and” are separate entries in the source; they are usually repeats but may differ in a detail not shown here. Equal entries are not always repeated. Where two headings read alike, the source gives them in different places.

Legend:
topoisomerase I = target: T1, topoisomerase I (Homo sapiens, UniProt P11387); settings: cited from earlier work
T1 sequence (P11387 1-765): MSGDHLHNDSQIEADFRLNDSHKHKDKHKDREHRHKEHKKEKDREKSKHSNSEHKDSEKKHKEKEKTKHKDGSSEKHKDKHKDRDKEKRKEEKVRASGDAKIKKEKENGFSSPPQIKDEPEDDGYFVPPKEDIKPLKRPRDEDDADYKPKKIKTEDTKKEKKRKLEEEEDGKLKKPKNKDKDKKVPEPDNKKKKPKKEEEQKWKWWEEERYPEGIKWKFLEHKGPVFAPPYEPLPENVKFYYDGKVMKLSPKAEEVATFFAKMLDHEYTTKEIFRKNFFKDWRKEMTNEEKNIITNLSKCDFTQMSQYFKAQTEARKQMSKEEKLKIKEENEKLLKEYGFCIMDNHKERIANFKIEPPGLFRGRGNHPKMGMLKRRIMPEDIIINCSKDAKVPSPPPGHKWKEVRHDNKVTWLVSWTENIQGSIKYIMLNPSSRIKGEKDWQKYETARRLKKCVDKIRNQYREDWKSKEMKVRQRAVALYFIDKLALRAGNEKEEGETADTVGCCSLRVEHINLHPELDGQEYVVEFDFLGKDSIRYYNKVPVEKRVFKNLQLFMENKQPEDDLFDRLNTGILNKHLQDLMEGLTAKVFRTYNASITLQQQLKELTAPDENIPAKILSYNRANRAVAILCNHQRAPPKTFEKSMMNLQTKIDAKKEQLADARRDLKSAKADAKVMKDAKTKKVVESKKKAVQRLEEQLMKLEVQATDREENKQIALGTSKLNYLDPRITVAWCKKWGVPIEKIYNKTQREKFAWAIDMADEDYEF

SET Ribosome [1] = assay: TR SET Assay (TPA Reference Standard) on HCT116 TR Cell Panel before and after nonadherent tumorsphere growth; type: cell-based, human; set-up: concentration or dose not given beside the values; settings: for SET Activity (day 0): TPA Reference Standard; for SET Activity (post-growth): TPA, after 32 days tumorsphere growth and 14 days replating
SET Ribosome [2] = test system: SET Ribosome
SET Ribosome [3] = assay: CremophorEL Cell Count Dose Response Assay, HEK293 TR cell lines; type: cell-based, human; settings: HEK293 mTRdm-fLUC#12; 100 nM TPA
SET Ribosome [4] = assay: Topotecan Modifier Assay on TPA Reference Standard response, HEK293 TR cell lines; type: cell-based, human; settings: HEK293 hTRdm-fLUC#13 and mTRdm-fLUC#45; with 100 nM TPA; 6 hours
[5] = in vivo, po; cited from earlier work
SET Ribosome [6] = assay: Topotecan dose response assay, MCF7 TR Cell Panel; type: cell-based, human
LD50 in mice (quoted) = settings: oral 0.000054 mg/kg/day vs mouse LD50
[7] = cited from earlier work
LD50 in rats (quoted) = settings: oral 0.00013 mg/kg/day
SET Ribosome [8] = assay: TPA Reference Standard Response Modifier Assay with ribosome binding translation inhibitors, HEK293 hTRdm-fLUC#13; type: cell-based, human; settings: with 100 nM TPA, 6 hours
[9] = cited from earlier work; remark: listed apart in the source
PKC = settings: cited from earlier work

For `CCc1c2c(nc3ccc(O)cc13)-c1cc3c(c(=O)n1C2)COC(=O)[C@]3(O)CC` [SN-38, 7-ethyl-10-hydroxy-camptothecin], the “potency relative to irinotecan” value (topoisomerase I) is given as 1000 X.
In the case of `CCCCCCCCCCCCCC(=O)O[C@@H]1[C@@H](C)[C@@]2(O)[C@@H](C=C(CO)C[C@]3(O)C(=O)C(C)=C[C@@H]23)[C@@H]2C(C)(C)[C@]12OC(C)=O` [TPA, 12-O-tetradecanoylphorbol-13-acetate], the “SET Activity (day 0)” value (SET Ribosome [1]; HCT116 mTRdm-fLUC#17) is reported as 226.3%, the “SET Activity (post-growth)” value (SET Ribosome [1]; HCT116 mTRdm-fLUC#17) is reported as 366.0% and the “SET Activity (day 0)” value (SET Ribosome [1]; HCT116 mTRdm-fLUC#25) is reported as 336.6%. For the same molecule, the “SET Activity (post-growth)” value (SET Ribosome [1]; HCT116 mTRdm-fLUC#25) was 26,675.6%, the “SET Activity (day 0)” value (SET Ribosome [1]; HCT116 mTRdm-fLUC#28) was 1,365.5% and the “SET Activity (post-growth)” value (SET Ribosome [1]; HCT116 mTRdm-fLUC#28) was 20,492.8%. The “SET Activity (day 0)” value (SET Ribosome [1]; HCT116 mTRdm-fLUC#36) was 875.3%, the “SET Activity (post-growth)” value (SET Ribosome [1]; HCT116 mTRdm-fLUC#36) was 3,926.9% and the “SET Activity (day 0)” value (SET Ribosome [1]; HCT116 mTRdm-fLUC#47) was 237.5%. For the same molecule, the “SET Activity (post-growth)” value (SET Ribosome [1]; HCT116 mTRdm-fLUC#47) was 1,434.3%, the “SET Activity (day 0)” value (SET Ribosome [1]; HCT116 mTRdm-fLUC#49) was 329.4% and the “SET Activity (post-growth)” value (SET Ribosome [1]; HCT116 mTRdm-fLUC#49) was 2,015.4%. For the same molecule, the “SET Activity (day 0)” value (SET Ribosome [1]; HCT116 mTRdm-fLUC#52) was 261.1%, the “SET Activity (post-growth)” value (SET Ribosome [1]; HCT116 mTRdm-fLUC#52) was 920.0% and the “SET Activity (day 0)” value (SET Ribosome [1]; HCT116 mTRdm-fLUC#58) was 324.4%. The “SET Activity (post-growth)” value (SET Ribosome [1]; HCT116 mTRdm-fLUC#58) was 636.6%, the “SET Activity (day 0)” value (SET Ribosome [1]; HCT116 mTRdm-fLUC#75) was 693.1% and the “SET Activity (post-growth)” value (SET Ribosome [1]; HCT116 mTRdm-fLUC#75) was 19,413.0%. For the same molecule, the “SET Activity (day 0)” value (SET Ribosome [1]; HCT116 mTRdm-fLUC#139) was 114.8%, the “SET Activity (post-growth)” value (SET Ribosome [1]; HCT116 mTRdm-fLUC#139) was 311.9% and the “SET Activity (day 0)” value (SET Ribosome [1]; HCT116 mTRdm-fLUC#156) was 462.3%. For the same molecule, the “SET Activity (post-growth)” value (SET Ribosome [1]; HCT116 mTRdm-fLUC#156) was 3,673.3%, the “SET Activity (day 0)” value (SET Ribosome [1]; HCT116 mTRdm-fLUC#190) was 204.4% and the “SET Activity (post-growth)” value (SET Ribosome [1]; HCT116 mTRdm-fLUC#190) was 178.3%. For the same molecule, the “SET Activity (day 0)” value (SET Ribosome [1]; HCT116 mTRdm-fLUC#220) was 115.5%, the “SET Activity (post-growth)” value (SET Ribosome [1]; HCT116 mTRdm-fLUC#220) was 81.8% and the “SET Response” value (SET Ribosome [2]) was “Agonist”. The SET increase (SET Ribosome [3]) was greater than 2000%.
For `CC[C@@]1(O)C(=O)OCc2c1cc1n(c2=O)Cc2cc3c(CN(C)C)c(O)ccc3nc2-1.Cl` [Topotecan, (S)-10-[(dimethylamino)methyl]-4-ethyl-4,9-dihydroxy-1H-pyrano[3′,4′:6,7]indolizino[1,2-b]quinoline-3,14(4H,12H)-dione monohydrochloride], the “doses completely blocking SET Ribosome activity” value (SET Ribosome [4]) was greater than 5 µM, the “SET Response” value (SET Ribosome [2]; High dose (HD) 10 uM) was “Antagonist” and the “SET Response” value (SET Ribosome [2]; Low dose (LD): Calon 1 uM, Topotecan 100 nM) was “Agonist”. For the same molecule, the oral bioavailability [5] was roughly 40%, the “time of peak plasma concentration post-administration” value [5] was 1 to 2 h and the IC100 (SET Ribosome [6]; MCF7 TR Cell Panel) was greater than 5 µM. The “dose of maximal SET response” value (SET Ribosome [6]; MCF7 TR Cell Panel) was 10 nM, the “dose range of SET Agonist activity” value (SET Ribosome [6]; MCF7 TR Cell Panel) was 2 to 100 nM and the “concentrations giving complete SET Ribosome block” value (SET Ribosome [6]; MCF7 TR Class 3 and Class 4 lines, 6 hours) was no less than 5 µM.
For `COc1ccc(C[C@H]2NC[C@H](O)[C@H]2OC(C)=O)cc1` [anisomycin, (2R,3S,4S)-4-hydroxy-2-(4-methoxybenzyl)-pyrrolidin-3-yl acetate], the “factor by which the IC100 dose is lower than a toxic concentration” value (LD50 in mice (quoted)) is listed as > 14,000 × and the LD50 ([7]; route not stated) is listed as 75 to 200 mg/kg.
In the case of `CC[C@H]1CN2CCc3cc(OC)c(OC)cc3[C@@H]2C[C@@H]1C[C@H]1NCCc2cc(OC)c(OC)cc21` [emetine, (2S, 3R, 11bS)-2-{{(1R)-6,7-dimethoxy-1,2,3,4-tetrahydroisoquinolin-1-yl]methyl}-3-ethyl-9,10-dimethoxy-2,3,4,6,7,11b-hexahydro-1H-pyrido[2,1-a] isoquinoline], the LD50 ([7]; subcutaneous) is given as 58 µM, the “factor by which the IC100 dose is lower than the rat LD50” value (LD50 in rats (quoted)) is given as > 5,231 × and the IC50 (SET Ribosome [8]; Homo sapiens, HEK293, read-out: IC50, SET ribosome inhibition) is given as 175 nM. For the same molecule, the “IC100 (100% SET Ribosome inhibition)” value (SET Ribosome [8]) was 2.5 µM and 2.5 to 10 µM, the LD50 ([9]; intravenous) was 5 µM and the LD50 ([9]; oral) was 35 µM.
In the case of Bryostatin 2, the “enzyme binding constant relative to bryostatin 1” value (PKC) is listed as 10 times.
